Results as given in patent US6407288B1, “Naphthylsalicylanilides as antimicrobial and antiinflammatory agents” (The Research Foundation of State University of New York, priority 2000, dated 2002).
In brackets after ≈: the same amount, converted by molar mass.

How the values were obtained:
P. acnes 11828 = assay: MIC microdilution, gram positive; type: cell-based, Propionibacterium acnes; conditions: Cutibacterium acnes, 11828; Table 1, Gram Positive
How it was run: (§1)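 Modified NCCLS broth microdilution: aerobes in full-strength BHI, anaerobes in half-strength BHI with yeast extract, hemin and menadione, each well given 10 µL of a ~1×10^8 CFU/mL inoculum. Drugs ranged 50–0.05 µg/assay, run in duplicate, incubated 24–48 h, anaerobically under 5% CO2/10% H2/N2 where needed. MIC was the lowest concentration with no visible growth.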

P. acnes 6922 = assay: MIC microdilution, gram positive; type: cell-based, Propionibacterium acnes; conditions: Cutibacterium acnes, 6922; Table 1, Gram Positive
How it was run: as §1

Pg 53977 = assay: MIC microdilution, gram negative; type: cell-based, Porphyromonas gingivalis; conditions: for MIC: Porphyromonas gingivalis, 53977, Table 3, Gram Negative; for MIC Pg 53977: Table 3 printed a second time, Gram Negative
How it was run: (§2)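 Modified NCCLS broth microdilution; anaerobes grown 48-72 hrs in half-strength BHI with yeast extract, hemin and menadione, aerobes in full-strength BHI, inoculum ~1×10^8 CFU/mL (10 μL/assay). Drugs from DMSO stock, final 50 to 0.05 μg/assay, duplicate, 24 to 48 hrs (anaerobic: 5% CO2, 10% H2, N2); MIC = lowest concentration without visible growth.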

P. ging 381 = assay: MIC microdilution, gram negative; type: cell-based, Porphyromonas gingivalis; conditions: for MIC: Porphyromonas gingivalis, 381, Table 3, Gram Negative; for MIC P. ging 381: Table 3 printed a second time, Gram Negative
How it was run: as §2

Str. pn. R = assay: Mean Streptococcus MIC; type: cell-based; conditions: Streptococcus; Table 5, mean; strain resistant to penicillin and erythromycin
Description: The MIC's for the compounds were determined by a modified microdilution tube dilution method described in “Methods for Dilution Antimicrobial Susceptibility Tests for Bacteria that Grow Aerobically” (National Committee for Clinical Laboratory Standards Approved Standards, 1997, NCCLS document M7-A4). In general the modifications were made because of the unique growth requirements for the fastidious oral organisms and for those bacteria that require anaerobic conditions. Reference is also made to “Methods for Antimicrobial Susceptibility of Anaerobic Bacteria” (National Committee for Clinical Laboratory Standards Approved Standards, 1997, NCCLS document M11-A4).
Briefly, the methods were as follows. Cultures were grown for 18-24hrs (aerobic bacteria) or 48-72 hrs (anaerobic bacteria) in the appropriate medium. For aerobic bacteria full strength brain heart infusion medium (BHI, Difco) was used. For anaerobic bacteria, half strength BHI (18.5 g/L) was supplemented by adding yeast extract (10 g/L), hemin (0.29 mL of a stock solution containing 0.1 g/200 mL dH2O) and menadione (15 mL of a stock solution containing 0.15 mL in 30 mL 95% EtOH) was used. Initial cultures were diluted to approximately 1×10^8 CFU/mL for use as an inoculum. Each assay received 10 μL of the inoculum. The drugs were prepared from a stock solution contained in dimethyl sulfoxide (DMSO) and diluted into the culture medium. Final concentrations of the drugs ranged from 50 to 0.05 μg/assay. The tests were run in duplicate and were incubated appropriately with regard to oxygen requirements for 24 to 48 hrs as required. Anaerobic incubation was an atmosphere of 5% CO2, 10% H2, with the balance N2. The lowest concentration of an antimicrobial agent at which no visible growth is noted was referred to as the MIC.
This embodiment illustrates the efficacy of the compounds of the present invention against Streptococcus strains. One of the strains, Str.pn.R was obtained from the Children's Hospital in Buffalo (strain 00-041-0614). […] The sensitivity of this strain was tested against several known antibiotics.

Fuso. 25586 = assay: MIC microdilution, gram negative; type: cell-based, Fusobacterium nucleatum; conditions: for MIC: Fusobacterium nucleatum, Table 3, Gram Negative; for MIC Fuso. 25586: Table 3 printed a second time, Gram Negative
Description: (§3) The MIC's for the compounds were determined by a modified microdilution tube dilution method described in “Methods for Dilution Antimicrobial Susceptibility Tests for Bacteria that Grow Aerobically” (National Committee for Clinical Laboratory Standards Approved Standards, 1997, NCCLS document M7-A4). In general the modifications were made because of the unique growth requirements for the fastidious oral organisms and for those bacteria that require anaerobic conditions. Reference is also made to “Methods for Antimicrobial Susceptibility of Anaerobic Bacteria” (National Committee for Clinical Laboratory Standards Approved Standards, 1997, NCCLS document M11-A4). Briefly, the methods were as follows. Cultures were grown for 18-24hrs (aerobic bacteria) or 48-72 hrs (anaerobic bacteria) in the appropriate medium. For aerobic bacteria full strength brain heart infusion medium (BHI, Difco) was used. For anaerobic bacteria, half strength BHI (18.5 g/L) was supplemented by adding yeast extract (10 g/L), hemin (0.29 mL of a stock solution containing 0.1 g/200 mL dH2O) and menadione (15 mL of a stock solution containing 0.15 mL in 30 mL 95% EtOH) was used. Initial cultures were diluted to approximately 1×10^8 CFU/mL for use as an inoculum. Each assay received 10 μL of the inoculum. The drugs were prepared from a stock solution contained in dimethyl sulfoxide (DMSO) and diluted into the culture medium. Final concentrations of the drugs ranged from 50 to 0.05 μg/assay. The tests were run in duplicate and were incubated appropriately with regard to oxygen requirements for 24 to 48 hrs as required. Anaerobic incubation was an atmosphere of 5% CO2, 10% H2, with the balance N2. The lowest concentration of an antimicrobial agent at which no visible growth is noted was referred to as the MIC. […] The method used was the same as described in Example 1.

S. mutans = assay: MIC microdilution, gram positive; type: cell-based, Streptococcus mutans; conditions: Streptococcus mutans; Table 1, Gram Positive
How it was run: as §1

Lact 7496 = assay: MIC microdilution, gram positive; type: cell-based, Lactobacillus rhamnosus (casei); conditions: Lacticaseibacillus rhamnosus, 7496; Table 2, Gram Positive
Description: The MIC's for the compounds were determined by a modified microdilution tube dilution method described in “Methods for Dilution Antimicrobial Susceptibility Tests for Bacteria that Grow Aerobically” (National Committee for Clinical Laboratory Standards Approved Standards, 1997, NCCLS document M7-A4). In general the modifications were made because of the unique growth requirements for the fastidious oral organisms and for those bacteria that require anaerobic conditions. Reference is also made to “Methods for Antimicrobial Susceptibility of Anaerobic Bacteria” (National Committee for Clinical Laboratory Standards Approved Standards, 1997, NCCLS document M11-A4). Briefly, the methods were as follows. Cultures were grown for 18-24hrs (aerobic bacteria) or 48-72 hrs (anaerobic bacteria) in the appropriate medium. For aerobic bacteria full strength brain heart infusion medium (BHI, Difco) was used. For anaerobic bacteria, half strength BHI (18.5 g/L) was supplemented by adding yeast extract (10 g/L), hemin (0.29 mL of a stock solution containing 0.1 g/200 mL dH2O) and menadione (15 mL of a stock solution containing 0.15 mL in 30 mL 95% EtOH) was used. Initial cultures were diluted to approximately 1×10^8 CFU/mL for use as an inoculum. Each assay received 10 μL of the inoculum. The drugs were prepared from a stock solution contained in dimethyl sulfoxide (DMSO) and diluted into the culture medium. Final concentrations of the drugs ranged from 50 to 0.05 μg/assay. The tests were run in duplicate and were incubated appropriately with regard to oxygen requirements for 24 to 48 hrs as required. Anaerobic incubation was an atmosphere of 5% CO2, 10% H2, with the balance N2. The lowest concentration of an antimicrobial agent at which no visible growth is noted was referred to as the MIC.

Aa Y4 = assay: MIC microdilution, gram negative; type: cell-based, Actinobacillus actinomycetemcomitans; conditions: for MIC: Aggregatibacter actinomycetemcomitans, Y4, Table 3, Gram Negative; for MIC Aa Y4: Table 3 printed a second time, Gram Negative
Description: as §3

S.salivarius = assay: MIC microdilution, gram positive; type: cell-based, Streptococcus salivarius; conditions: Streptococcus salivarius; Table 1, Gram Positive
How it was run: as §1

Row | Compound | MIC (P. acnes 11828) [µg/mL] | MIC (P. acnes 6922) [µg/mL] | MIC (Pg 53977) [µg/mL] | MIC Pg 53977 (Pg 53977) [micrograms/ml] | MIC (P. ging 381) [µg/mL] | MIC P. ging 381 (P. ging 381) [micrograms/ml] | MIC (Str. pn. R) [µg/mL] | MIC (Fuso. 25586) [µg/mL] | MIC (S. mutans) [µg/mL] | MIC (Lact 7496) [µg/mL] | MIC (Aa Y4) [µg/mL] | MIC (S.salivarius) [µg/mL] | MIC Fuso. 25586 (Fuso. 25586) | MIC Aa Y4 (Aa Y4)
1 | CCCCc1ccc(C(=O)c2ccc(O)c(C(=O)Nc3cccc(C(F)(F)F)c3)c2)cc1 [BBAmF, reference compound] | 0.8 (≈ 1.81 µM) | 0.2 (≈ 0.453 µM) | < 0.4 | <0.4 | < 0.4 | <0.4 | > 50 | > 50 | > 50 | 6.3 (≈ 14.3 µM) | > 50 | > 50 | NE (NE indicates that the drug was not effective at a concentration >50 micrograms/ml) | NE (NE indicates that the drug was not effective at a concentration >50 micrograms/ml)
2 | N#Cc1cccc(NC(=O)c2cc(C(=O)c3ccc(-c4ccccc4)cc3)ccc2O)c1 [BPAmC, reference compound] | 12.5 (≈ 29.9 µM) | 0.2 (≈ 0.478 µM) | < 0.4 | <0.4 | < 0.4 | <0.4 | > 50 | > 50 | > 50 | 12.5 (≈ 29.9 µM) | > 50 | > 50 | NE (NE indicates that the drug was not effective at a concentration >50 micrograms/ml) | NE (NE indicates that the drug was not effective at a concentration >50 micrograms/ml)
3 | O=C(c1ccc(-c2ccccc2)cc1)c1ccc(O)c(C(=O)Nc2cccc(C(F)(F)F)c2)c1 [BPAmF, reference compound] | 0.4 (≈ 0.867 µM) | 0.2 (≈ 0.433 µM) | < 0.4 | <0.4 | < 0.4 | <0.4 | > 50 | > 50 | > 50 | 6.3 (≈ 13.7 µM) | > 50 | > 50 | NE (NE indicates that the drug was not effective at a concentration >50 micrograms/ml) | NE (NE indicates that the drug was not effective at a concentration >50 micrograms/ml)

Now from value to compound, other results behind:

Row | MIC (P. acnes 11828) [µg/mL] | MIC (P. acnes 6922) [µg/mL] | MIC (Pg 53977) [µg/mL] | MIC Pg 53977 (Pg 53977) [micrograms/ml] | MIC (P. ging 381) [µg/mL] | MIC P. ging 381 (P. ging 381) [micrograms/ml] | MIC (Str. pn. R) [µg/mL] | MIC (Fuso. 25586) [µg/mL] | MIC (S. mutans) [µg/mL] | MIC (Lact 7496) [µg/mL] | MIC (Aa Y4) [µg/mL] | MIC (S.salivarius) [µg/mL] | Compound | MIC Fuso. 25586 (Fuso. 25586) | MIC Aa Y4 (Aa Y4)
4 | 6.3 (≈ 16.1 µM) | 6.3 (≈ 16.1 µM) | 0.8 (≈ 2.04 µM) | 0.8 | 0.4 (≈ 1.02 µM) | 0.4 | 12.5 (≈ 31.9 µM) | 2.5 (≈ 6.37 µM) | 3.1 (≈ 7.9 µM) | 3.1 (≈ 7.9 µM) | 6.3 (≈ 16.1 µM) | 50 (≈ 127 µM) | N#Cc1cccc(NC(=O)c2cc(C(=O)c3cccc4ccccc34)ccc2O)c1 [NA1mC] | 2.5 micrograms/ml | 6.3 micrograms/ml
5 | 0.4 (≈ 0.919 µM) | 0.2 (≈ 0.459 µM) | < 0.1 | <0.1 | < 0.1 | <0.1 | 0.78 (≈ 1.79 µM) | 3.1 (≈ 7.12 µM) | 0.8 (≈ 1.84 µM) | 0.4 (≈ 0.919 µM) | 3.1 (≈ 7.12 µM) | 3.1 (≈ 7.12 µM) | O=C(Nc1cccc(C(F)(F)F)c1)c1cc(C(=O)c2cccc3ccccc23)ccc1O [NA1mF] | 3.1 micrograms/ml | 3.1 micrograms/ml
